Results published in US20250339391A1, “METHODS FOR EFFECTIVE MANAGEMENT OF PAIN” (South Rampart Pharma, Inc., priority 2024, published 2025).
Entries after “also recorded” stand apart in the source; their conditions may differ. Like-named read-outs stand apart in the source and are kept apart here.

Tests used:
[1] = system: CD1 (young male and female) or C57BL/6 (aged male) mice; assay: Acetic acid-induced abdominal writhing visceral pain assay; assay type: in vivo, mouse; conditions: for analgesia in acetic acid-induced writhing assay: 100 mg/kg, all cohorts; for antinociception in acetic acid writhing: 32 and 100 mg/kg PO, 0.4% acetic acid ip
Experimental: In this model of visceral pain, abdominal contraction (writhing) in which contraction of the abdominal muscles and stretching of the hind limbs is induced in mice in response to an ip injection of 0.4% acetic acid at a dose of 10 mL/kg 25 min after drug administration is assessed. Specifically, the number of writhes is counted for 10 min beginning 5 min after acetic acid injection. […] CD1 (young male and female) or C57BL/6 (aged male) mice were used. For the abdominal writhing assays, we used n=35 aged male mice, n=70 young male mice, and n=70 young female mice.

[2] = system: CD1 (young male and female) or C57BL/6 (aged male) mice; assay: Cold tail flick somatic pain assay; assay type: in vivo, mouse; conditions: for analgesia in cold tail-flick assay: 100 mg/kg, all cohorts; for tail withdrawal time (latency) to cold stimulation: 32 and 100 mg/kg PO, 4 °C water
Experimental: Half of the tail was immersed in ice-cold water maintained at 4° C. For the tail-flick assays, we used n=70 aged male mice, n=90 young male mice, and n=120 young female mice. Based on the availability of mice at the time of the experiments, different numbers of animals were assigned in different cohorts of experimental animals. Tail flick assay experiments were conducted on an open bench in a dedicated room at the LSUHSC New Orleans Neuroscience Center of Excellence vivarium. Mice were allowed to acclimate to the laboratory environment for 1 h prior to testing. To restrain the mice for the test, disposable plastic 50 mL screw-capped conical centrifuge tubes were cut at the tip to create a 0.5 cm opening to allow the mice to breathe freely. Another 0.5 cm opening was cut into the cap to allow access of the tail to the water bath. A 500 mL glass beaker was filled with 450 mL of ice-cold distilled water maintained at 4° C. with the addition of ice and determined with a glass thermometer. Mice were held over the opening of the water bath, and their tails submerged approximately halfway into the water. The nociceptive threshold was taken as the latency until the mice flicked their tail tip or removed the tail. The time from immersion to the attempted tail tip removal was measured to 1/10th of a sec with a digital laboratory timer. To minimize damage to the tail, a 60-sec cut-off was utilized. […] Injections were at doses of 32 mg/kg and 100 mg/kg. 30 min post-drug administration tail-flick/withdrawal latency was measured.

CD-1 male mice = conditions: for mortality by 72 hours: n=10
Experimental: CD-1 male mice obtained from Charles River Laboratories underwent a one-week acclimation period. They were housed under a 12-hour day/night cycle, with unrestricted access to food and water. Before experimentation, mice were fasted for 15 hours. […] Each treatment group consisted of 10 mice. Post-dosing, the mice were monitored at 6-hour intervals over 72 hours for signs of becoming moribund. An investigator blinded to the treatment groups conducted the moribund state assessment.

Sprague-Dawley rats [3] = assay: CFA inflammatory pain / von Frey with electronic detection (eVF); assay type: in vivo, rat; conditions: for antinociceptive activity, SRP-001 versus ApAP: 32 and 100 mg/kg, young and aged rats
Experimental: In this model of mechanonociception, one hind paw at a time is stimulated with an electronic von Frey (eVF) filament (noxious source) until the animal retracts the paw from the mechanical stimulus. von Frey tests were conducted in a dedicated room at the LSUHSC New Orleans Neuroscience Center of Excellence vivarium. Rats were acclimated to their environment for 2 days for 30 min/day prior to testing. To obtain eVF pressure recordings, each animal was placed in an individual plastic observation compartment on a perforated metallic grid platform, which provided access to the plantar surface of the hind paws. After acclimation to the environment for 30 min, mechanical hypersensitivity was assessed by stimulating the mid-plantar area of each hind paw with a rigid tip von Frey filament attached to the eVF meter (Ugo Basile 38450) until animals withdrew the paw from the filament. The withdrawal threshold was defined as the average force/pressure (g) required for the rat to withdraw the stimulated paw. A brisk withdrawal of the paw (often followed by a sustained retraction and/or licking) was considered a positive response, but paw withdrawals due to locomotion or weight shifting were not counted. The von Frey studies were conducted with an eVF device that electronically registers the grams of force necessary to elicit paw withdrawal in order to eliminate bias that confounded previous older versions of this test. Baseline withdrawal thresholds of both the right and left paws were recorded, and animals were assigned to different treatment groups so that each group had approximately equal withdrawal threshold averages in both paws. […] Doses at concentrations of 32 mg/kg and 100 mg/kg were tested in a cumulative dose-response manner and given at an interval of 60 min, and paw withdrawal threshold readings were measured using eVF as described above.

Sprague-Dawley rats [4] = assay: CFA-induced inflammatory pain / Hargreaves thermal sensitivity assay; assay type: in vivo, rat; conditions: for analgesia, paw withdrawal latencies: 100 mg/kg
From the text: In these same cohorts of animals, we simultaneously measured their thermal nociception to hyperalgesia with the Hargreaves test using the plantar test apparatus (Ugo Basile 37570). In this experimental setup, the rodents are placed in plastic cages on top of a glass surface, and their hind paws are subjected to an infrared heat stimulus. One hind paw at a time is stimulated with the light source (noxious stimuli) until the animal retracts the paw from the glass surface because of the stimulus. Baseline withdrawal thresholds (latency) of both the right and left paws were recorded, and animals were assigned to different treatment groups so that each group had approximately equal withdrawal threshold averages in both paws. After baseline testing, treated animals received subcutaneous plantar injection (150 μl) of 50% CFA into the left hind paw, while control animals received a plantar injection (150 μl) of 0.9% NaCl into their left hind paw. CFA induces inflammation, resulting in a left hind paw that is hypersensitive to the thermal stimulus, while the right hind paw serves as a within-subject baseline for each animal. To obtain Hargreaves withdrawal latency recordings, each animal was placed in an individual plastic observation compartment on a glass platform, which provided access to the plantar surface of the hind paws from underneath. After acclimation to the environment for 30 min, thermal hypersensitivity was assessed by stimulating the mid-plantar area of each hind paw with a bright light source attached to the meter (Ugo Basile 37570) until animals withdrew the paw from the surface. The withdrawal threshold was defined as the average time (s) required for the rat to withdraw the stimulated paw. A brisk withdrawal of the paw (often followed by a sustained retraction and/or licking) was considered a positive response, but paw withdrawals due to locomotion or weight shifting were not counted. The Hargreaves studies were conducted with the plantar stimulation device that automatically registers the time (s) necessary to elicit paw withdrawal in order to eliminate bias in determining paw withdrawal thresholds. A cutoff of 20 s is pre-programmed so that the light source shuts off at that maximal period so as to not induce any burns on the plantar surface of the rodents. The Hargreaves test permits measurement of ipsilateral and contralateral heat thresholds, allowing each animal to serve as its own internal control in unilateral pain models. In addition, the Hargreaves test enables quantification of heat thresholds in unrestrained animals, reducing the likelihood of stress-induced responses.

[5] = 992 oral gavage (ApAP 150 mg/kg, SRP-001 402 mg/kg)
[6] = young male and young female rats

SMILES | analgesia in acetic acid-induced writhing assay [1] | antinociception in acetic acid writhing [1] | analgesia in cold tail-flick assay [2] | tail withdrawal time (latency) to cold stimulation [2] | mortality by 72 hours (CD-1 male mice; [5]) | mortality by 72 hours (CD-1 male mice; 1,984 oral gavage (ApAP 300 mg/kg)) | mortality by 72 hours (CD-1 male mice; 3,969 oral gavage (ApAP 600 mg/kg)) | mortality reached within 72 hours (Kaplan-Meier) (CD-1 male mice; highest dose) [%] | antinociceptive activity, SRP-001 versus ApAP (Sprague-Dawley rats [3]) | analgesia, paw withdrawal latencies (Sprague-Dawley rats [4]; aged male rats) | analgesia, paw withdrawal latencies (Sprague-Dawley rats [4]; [6]) | equimolar (μmol/kg) ED50 / dose-response curve relative to ApAP ([1]; acetic acid writhing) | equimolar (μmol/kg) ED50 / dose-response curve relative to ApAP ([2]; tail flick) | equimolar (μmol/kg) ED50 / dose-response curve relative to ApAP (Sprague-Dawley rats [3]; von Frey, non-linear regression) | antinociception in Hargreaves assay (Sprague-Dawley rats [4]; young female and male rats and aged male rats)
CC(=O)Nc1ccc(O)cc1 [ApAP, acetaminophen] | significant analgesia | experienced antinociception | significant analgesia | increased tail withdrawal time (latency) | absence of mortality | 1/10 | 3/10 | 70 | comparable antinociceptive activity; also recorded: comparable analgesic activity | significant analgesia | significant analgesia |  |  |  | 
CCN(CC)C(=O)c1ccccc1S(=O)(=O)NCC(=O)Nc1ccc(O)cc1 [SRP-001, N,N-diethyl-2-[[2-(4-hydroxyanilino)-2-oxo-ethyl]sulfamoyl]benzamide] | significant analgesia | experienced antinociception | significant analgesia | increased tail withdrawal time (latency) | absence of mortality |  |  |  | comparable antinociceptive activity; also recorded: more efficacious than ApAP; also recorded: comparable analgesic activity | significant analgesia | significant analgesia | comparable or improved ED50; also recorded: shifted to the left; also recorded: clear shift to the left | comparable or improved ED50; also recorded: clear shift to the left | shifted curves to the left; also recorded: comparable or improved ED50; also recorded: clear shift to the left | Antinociception was also confirmed
